Measured values: ChEMBL document CHEMBL1142712, “Identification of small molecule chemical inhibitors of the collagen-specific chaperone Hsp47” (J Med Chem, 2005)
pIC50: −log10 of the molar value.

biological target: T1, Serpin H1 (Homo sapiens, UniProt P50454); assay: Inhibitory concentration against Hsp47 collagen chaperone in turbidity assay
T1 sequence (P50454 whole entry): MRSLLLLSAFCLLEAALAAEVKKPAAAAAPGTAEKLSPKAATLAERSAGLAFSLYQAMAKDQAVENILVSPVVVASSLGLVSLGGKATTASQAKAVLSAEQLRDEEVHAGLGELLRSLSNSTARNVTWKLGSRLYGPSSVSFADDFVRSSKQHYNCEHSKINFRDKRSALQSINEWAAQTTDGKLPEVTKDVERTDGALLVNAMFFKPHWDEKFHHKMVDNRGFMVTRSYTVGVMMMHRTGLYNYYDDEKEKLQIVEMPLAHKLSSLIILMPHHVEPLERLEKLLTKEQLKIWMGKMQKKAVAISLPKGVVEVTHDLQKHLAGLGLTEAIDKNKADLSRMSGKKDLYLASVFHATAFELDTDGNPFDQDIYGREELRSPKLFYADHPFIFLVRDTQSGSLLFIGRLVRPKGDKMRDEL

In order of rising pIC50:
1. Nc1ccc(SC(C[N+](=O)[O-])c2ccc(F)cc2)cc1 (centres undefined)  4.58
2. COc1ccc(C(C[N+](=O)[O-])Sc2ccc(N)cc2)cc1 (centres undefined)  4.58
3. Cc1cc(C(=O)CSc2nc(O)c(C#N)c(-c3cccs3)n2)ccc1Cl  5.20
4. COC(=O)c1cc(Cl)cc2c1N[S+]([O-])S2 (centres undefined)  5.51
